Measured values from patent US10588935B2, “FC receptor (FcRn) binding peptides and uses thereof” (THE BRIGHAM AND WOMEN'S HOSPITAL, INC., priority 2013, dated 2020).
Several values for one entry are separate records, joined by “and”; a condition that tells them apart may be missing. Equal entries are not always repeated. Entries after “also recorded” stand apart in the source; their conditions may differ. Where two headings read alike, the source gives them in different places. Blank lines part the entries; values can stand above or below the molecule they belong to. Bridge positions count the residues as written; N and C are the ends. Peptide text beside a SMILES is read from it.

What was measured:
soluble human FcRn = biological target: T1, soluble human FcRn (Homo sapiens, UniProt P55899); assay: SPR (Biacore) affinity of peptides for immobilized soluble human FcRn; format: binding
T1 construct: Soluble human FcRn was expressed and purified by Biogen-Idec as previously described (29)
Procedure: SPR analyses were conducted using a Biacore 3000 or T100 instrument. Research-grade CM5 sensor chips and all coupling reagents for immobilization were purchased from Biacore. All proteins were cross-linked to the dextran surface of a CM5 sensor chip by standard amine coupling chemistry as recommended by Biacore. […] Binding experiments were performed at pH 6.0 or 7.4 using 50 mM phosphate, 100 mM sodium chloride and 0.01% surfactant P20. […] Bound albumin protein was then allowed to dissociate from the chip for 5 minutes with running buffer. Any remaining albumin was removed from the chip with a 60 second injection (2 cycles) of pH 8.0 Tris-HCl regeneration buffer (1 M Tris pH 8.0) at 25 μL/min flow rate. The binding responses recorded near the end of the association phase were plotted as a function of concentration. Equilibrium dissociation constants (KD), were derived from sensorgrams using the 1:1 binding model of BIAevaluation software 4.1.

shFcRn binding to HSA = shFcRn binding to HSA (Homo sapiens, UniProt P55899); assay: SPR screening of FcRn binding peptides for inhibition of shFcRn binding to immobilized HSA; conditions: 14 uM peptide, 5 uM shFcRn, pH 6
Procedure: Unreacted sites were then capped by injecting a solution of ethanolamine over the chip surface. A reference flow cell was activated with EDC/NHS and then blocked with ethanolamine.
Samples were injected over the chip for 3 minutes at 20 uL/min followed by a 2.5 minute dissociation phase.

FcRn = FcRn (Homo sapiens, UniProt P55899); assay: Competition for albumin or IgG binding to FcRn; parameters: Soluble human FcRn was expressed and purified by Biogen-Idec as previously described (29); conditions: for competition with IgG or albumin for the FcRn binding site: competition experiments / SPR
Text: Peptide phage libraries, obtained from Dyax Corp, were screened against biotinylated soluble human FcRn bound to streptavidin beads, using 3 rounds of sequential pH 6.0 binding and pH 7.5 elution/amplification protocols. […] Peptide SYN514 was utilized during a 2nd peptide phage screen to occupy this site on FcRn prior to the addition of the phage libraries, and to identify albumin-competitive sequences. This strategy uncovered the albumin-competitive peptide, SYN571, and through structure-activity relationships, the shorter sequence SYN1753 (Ac-[…]-CONH2 (SEQ ID NO: 1) (disulfide) which bound to shFcRn with equivalent affinity as determined by SPR.

[1] = test system: MDCK II cells expressing hFcRn and hβ2m; assay: FcRn dependent albumin transcytosis bioassay; format: cell-based, canine; conditions: input chamber pH 6.0, exit pH 7.4, 2 hours; compared to scrambled peptide or isotype control
Procedure: Albumin transcytosis assays were performed as previously described for IgG. In brief, MDCK II cells expressing hβ2m and hFcRn were grown to confluence on transwells (Costar) and allowed to polarize over 4 days. 12 hours before the transcytosis experiment, the medium was changed to serum-free media without antibiotics. On the day of experiment, the transwells were incubated with HBSS pH 7.4 for 20 minutes before placing on a new 12 well plate (Costar) where the input chamber contains HBSS pH 6.0 and the exit chamber contains HBSS pH 7.4 and pH adjusted albumin was added to the input chamber afterwards. For blocking albumin transcytosis with the peptide inhibitors SYN1753 and SYN3258, transwells were pre-incubated for 20 min with the respective peptides in HBSS pH 6.0 prior to the addition of albumin in the continued presence of the peptides. After incubating for 2 hours in 37° C. and 5% CO2, the medium at the opposite chamber were harvested and the albumin concentration was measured using ELISA method. For the recycling assay, the transwells were washed with HBSS pH 7.4 for 5 minutes before placing on a new 12-well plate with HBSS pH 6.0 at both chambers. After equilibration at 37° C. and 5% CO2, pH adjusted albumin human albumin was added and allowed to incubate for one hour. The transwells were then washed at HBSS pH 6.0 before placing in a new 12-well plate with HBSS pH 7.4 at both chambers. After one hour incubation, medium from the input chamber was removed and the albumin concentration was measured by ELISA. For the human albumin secretion assay the medium was changed to serum- and antibiotic-free media on the day of the experiment. 50 μL of the medium from both chambers were removed periodically over 24 hours, and the human albumin concentration was measured using ELISA with volume reduction adjustment.

[2] = Table 1, pH 6, shFcRn immobilized on the sensor chip, steady state fit, read-out: Kd, pH 6** Biacore
[3] = Table 2, pH 7.4, data only 100 uM, therefore Kd may be higher, read-out: Kd, pH 7.4 Biacore
[4] = Table 2, pH 6, immobilized shFcRn, data fit steady state or 2 site, read-out: Kd, pH 6** Biacore

Kd Ratio 7.4/6.0 (soluble human FcRn; Table 1): 29
Kd (soluble human FcRn; [2]): 0.45 µM and 0.5 µM
Kd (soluble human FcRn; Table 1, pH 7.4, shFcRn immobilized, read-out: Kd, pH 7.4 Biacore): 13.1 µM
block of shFcRn binding to immobilized HSA (shFcRn binding to HSA): completely block
Molecule: CC(=O)N[C@@H](C)C(=O)NCC(=O)N[C@@H](CCCNC(=N)N)C(=O)N[C@@H](Cc1ccc(O)cc1)C(=O)N[C@@H](Cc1ccccc1)C(=O)N[C@H]1CSSC[C@@H](C(=O)N[C@@H](CCC(=O)O)C(=O)N[C@@H](CCC(=O)O)C(=O)N[C@H](C(=O)NCC(=O)N[C@H](C(=O)NCC(=O)NCC(=O)NCC(=O)N[C@@H](CCCCN)C(N)=O)[C@@H](C)O)C(C)C)NC(=O)[C@H](Cc2c[nH]c3ccccc23)NC(=O)CNC(=O)[C@H](Cc2c[nH]cn2)NC(=O)[C@H](CCCCN)NC(=O)[C@H](Cc2c[nH]c3ccccc23)NC(=O)[C@H](CCCCN)NC(=O)[C@H]([C@@H](C)O)NC1=O [SYN571] (Ac-AGRYFCTKWKHGWCEEVGTGGGK-NH2; disulfide 6-14)
competition with IgG or albumin for the FcRn binding site (FcRn): albumin-competitive; also recorded: inhibit shFcRn:albumin interactions, but not those of IgG: shFcRn

competition with IgG or albumin for the FcRn binding site (FcRn): non-IgG, non-albumin competitive
Molecule: Ac-AGVMHCFWDEEFKCDQGGTGGGK-CONH2 (Ac-AGVMHCFWDEEFKCDQGGTGGGK-NH2; disulfide 6-14 (inferred)) [SYN514]

Kd Ratio 7.4/6.0 (soluble human FcRn; Table 2): 56
Molecule: CSCC[C@H](NC(=O)[C@H](Cc1ccc(O)cc1)NC(C)=O)C(=O)N[C@H](C(=O)N[C@H]1CSSC[C@@H](C(=O)N[C@@H](CCC(=O)O)C(=O)N[C@@H](Cc2ccc(O)cc2)C(=O)N[C@H](C(N)=O)C(C)C)NC(=O)[C@H](CO)NC(=O)[C@H](Cc2ccccc2)NC(=O)CNC(=O)[C@H](CC(=O)O)NC(=O)[C@H](CC(=O)O)NC(=O)[C@H](Cc2c[nH]c3ccccc23)NC(=O)[C@H](C)NC1=O)[C@@H](C)O [SYN1147] (Ac-YMTCAWDDGFSCEYV-NH2; disulfide 4-12 (inferred))

Kd Ratio 7.4/6.0 (soluble human FcRn; Table 2): 34.4
Kd (soluble human FcRn; [3]): 8.6 µM
Molecule: CSCC[C@H](NC(=O)[C@H](Cc1ccc(O)cc1)NC(C)=O)C(=O)N[C@@H](C)C(=O)N[C@H]1CSSC[C@@H](C(=O)N[C@@H](CCC(=O)O)C(=O)N[C@@H](Cc2ccc(O)cc2)C(=O)N[C@H](C(N)=O)C(C)C)NC(=O)[C@H](CO)NC(=O)[C@H](Cc2ccccc2)NC(=O)CNC(=O)[C@H](CC(=O)O)NC(=O)[C@H](CC(=O)O)NC(=O)[C@H](Cc2c[nH]c3ccccc23)NC(=O)[C@H](CCCCN)NC1=O [SYN1146] (Ac-YMACKWDDGFSCEYV-NH2; disulfide 4-12 (inferred))

Kd Ratio 7.4/6.0 (soluble human FcRn; Table 2): 82
Molecule: CSCC[C@H](NC(=O)[C@@H](NC(C)=O)C(C)C)C(=O)N[C@@H](Cc1c[nH]cn1)C(=O)N[C@H]1CSSC[C@@H](C(=O)N[C@@H](CC(=O)O)C(=O)N[C@@H](Cc2ccc(O)cc2)C(=O)NCC(N)=O)NC(=O)[C@H](CCCNC(=N)N)NC(=O)[C@H](Cc2ccccc2)NC(=O)[C@H](CCC(=O)O)NC(=O)[C@H](CCC(=O)O)NC(=O)[C@H](CC(=O)O)NC(=O)[C@H](Cc2c[nH]c3ccccc23)NC(=O)[C@H](Cc2ccccc2)NC1=O [SYN1381] (Ac-VMHCFWDEEFRCDYG-NH2; disulfide 4-12 (inferred))

Kd Ratio 7.4/6.0 (soluble human FcRn; Table 2): 20
Kd (soluble human FcRn; [4]): 1.5 µM and 0.46 µM
Molecule: CSCC[C@H](NC(=O)[C@H](Cc1ccc(O)cc1)NC(C)=O)C(=O)N[C@H](C(=O)N[C@H]1CSSC[C@@H](C(=O)N[C@@H](C)C(=O)N[C@@H](Cc2ccc(O)cc2)C(=O)N[C@H](C(N)=O)C(C)C)NC(=O)[C@H](CO)NC(=O)[C@H](Cc2ccccc2)NC(=O)CNC(=O)[C@H](CC(=O)O)NC(=O)[C@H](CC(=O)O)NC(=O)[C@H](Cc2c[nH]c3ccccc23)NC(=O)[C@H](CCCCN)NC1=O)[C@@H](C)O [SYN1154] (Ac-YMTCKWDDGFSCAYV-NH2; disulfide 4-12 (inferred))

Kd Ratio 7.4/6.0 (soluble human FcRn; Table 2): 83
Kd (soluble human FcRn; [3]): 8.6 µM
Molecule: CSCC[C@@H]1NC(=O)[C@H](CCC(=O)O)NC(=O)[C@H](CCC(=O)O)NC(=O)[C@H](CC(=O)O)NC(=O)[C@H](Cc2c[nH]c3ccccc23)NC(=O)[C@H](Cc2c[nH]c3ccccc23)NC(=O)[C@@H](NC(=O)[C@H](CCCCN)NC(=O)[C@H](CCSC)NC(=O)[C@@H](NC(C)=O)C(C)C)CSSC[C@@H](C(=O)N[C@@H](CCCNC(=N)N)C(=O)N[C@@H](Cc2ccc(O)cc2)C(=O)N[C@@H](Cc2ccccc2)C(N)=O)NC(=O)[C@H](CC(C)C)NC1=O [SYN1539] (Ac-VMKCWWDEEMLCRYF-NH2; disulfide 4-12 (inferred))

Kd Ratio 7.4/6.0 (soluble human FcRn; Table 2): 34
Kd (soluble human FcRn; [4]): 0.032 µM
Kd (soluble human FcRn; [3]): 1.1 µM
Competition for albumin or IgG binding to FcRn (FcRn; Table 3): none
Molecule: CSCC[C@H](NC(=O)[C@@H](NC(C)=O)C(C)C)C(=O)N[C@@H](Cc1c[nH]cn1)C(=O)N[C@H]1CSSC[C@@H](C(=O)N[C@@H](CCC(=O)O)C(=O)N[C@@H](Cc2ccc(O)cc2)C(=O)N[C@H](C(N)=O)C(C)C)NC(=O)[C@H](CCCNC(=N)N)NC(=O)[C@H](Cc2ccccc2)NC(=O)[C@H](CCC(=O)O)NC(=O)[C@H](CCC(=O)O)NC(=O)[C@H](CC(=O)O)NC(=O)[C@H](Cc2c[nH]c3ccccc23)NC(=O)[C@H](Cc2ccccc2)NC1=O [SYN1383] (Ac-VMHCFWDEEFRCEYV-NH2; disulfide 4-12 (inferred))
block of shFcRn binding to immobilized HSA (shFcRn binding to HSA): not able to block the binding of shFcRn to HSA
competition with IgG or albumin for the FcRn binding site (FcRn): not been shown to be competitive with IgG or any other proteins; also recorded: does not block IgG binding to FcRn; also recorded: non-IgG, non-albumin competitive

Kd (soluble human FcRn; [4]): 0.57 ± 0.02 µM
Molecule: CSCC[C@H](NC(=O)[C@H](Cc1ccc(O)cc1)NC(C)=O)C(=O)N[C@H](C(=O)N[C@H]1CSSC[C@@H](C(=O)N[C@@H](CCC(=O)O)C(=O)N[C@@H](Cc2ccc(O)cc2)C(N)=O)NC(=O)[C@H](CO)NC(=O)[C@H](Cc2ccccc2)NC(=O)CNC(=O)[C@H](CC(=O)O)NC(=O)[C@H](CC(=O)O)NC(=O)[C@H](Cc2c[nH]c3ccccc23)NC(=O)[C@H](CCCCN)NC1=O)[C@@H](C)O [SYN1164] (Ac-YMTCKWDDGFSCEY-NH2; disulfide 4-12 (inferred))

Kd (soluble human FcRn; Table 3, pH 6.0, read-out: Kd, pH 6.0 (Biacore μM)): 0.5 µM
Kd (soluble human FcRn; pH 6.0, read-out: affinity for FcRn by SPR): ~0.5 µM
Molecule: CC(=O)N[C@@H](CCCNC(=N)N)C(=O)N[C@@H](Cc1ccc(O)cc1)C(=O)N[C@@H](Cc1ccccc1)C(=O)N[C@H]1CSSC[C@@H](C(=O)N[C@@H](CCC(=O)O)C(=O)N[C@@H](CCC(=O)O)C(=O)N[C@H](C(=O)NCC(=O)N[C@H](C(N)=O)[C@@H](C)O)C(C)C)NC(=O)[C@H](Cc2c[nH]c3ccccc23)NC(=O)CNC(=O)[C@H](Cc2c[nH]cn2)NC(=O)[C@H](CCCCN)NC(=O)[C@H](Cc2c[nH]c3ccccc23)NC(=O)[C@H](CCCCN)NC(=O)[C@H]([C@@H](C)O)NC1=O [SYN1753]
transcytosis of human albumin [1]: capable of blocking transcytosis of human albumin; also recorded: significantly reducing

Kd (soluble human FcRn; [2]): > 100 µM
Molecule: CC(=O)N[C@@H](CCCNC(=N)N)C(=O)N[C@@H](Cc1ccc(O)cc1)C(=O)N[C@@H](Cc1ccccc1)C(=O)N[C@H]1CSSC[C@@H](C(=O)N[C@@H](CCC(=O)O)C(=O)N[C@@H](CCC(=O)O)C(=O)N[C@H](C(N)=O)C(C)C)NC(=O)[C@H](Cc2c[nH]c3ccccc23)NC(=O)CNC(=O)[C@H](Cc2c[nH]cn2)NC(=O)[C@H](CCCCN)NC(=O)[C@H](C)NC(=O)[C@H](CCCCN)NC(=O)[C@H]([C@@H](C)O)NC1=O [SYN1547] (Ac-RYFCTKAKHGWCEEV-NH2; disulfide 4-12)
